Tests used:
Test in all cases: relative viability (nuclei count vs DMSO), 5 days (fraction); higher = more cells survive
[1] = test system: NCI-H1915
How it was run: (§1)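 One day after seeding in 1536-well plates, lung cancer cell lines were dosed by pin tool. Dosing was either single-drug or a fixed anchor-drug dose plus five library-drug doses (not always all listed) in √10 steps. After 5 days, nuclei were stained in one fix-and-stain step and counted on 4× images, and relative viability is the nuclei count of treated wells over that of vehicle wells, given as the median of duplicate plates.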

[2] = test system: 201T
How it was run: as §1

[3] = test system: NCI-H460
How it was run: as §1

[4] = test system: NCI-H727
How it was run: as §1

[5] = test system: NCI-H520
How it was run: as §1

[6] = test system: NCI-H2087
How it was run: as §1

[7] = test system: A-427
How it was run: as §1

[8] = test system: CAL-12T
How it was run: as §1

[9] = test system: NCI-H650
How it was run: as §1

[10] = test system: NCI-H1651
How it was run: as §1

[11] = test system: NCI-H2023
How it was run: as §1

[12] = test system: ABC-1
How it was run: as §1

[13] = test system: LC-2-ad
How it was run: as §1

[14] = test system: NCI-H1650
How it was run: as §1

[15] = test system: NCI-H661
How it was run: as §1

[16] = test system: HCC-15
How it was run: as §1

[17] = test system: NCI-H1944
How it was run: as §1

[18] = test system: H3255
How it was run: as §1

[19] = test system: PC-3 [JPC-3]
How it was run: as §1

[20] = test system: NCI-H596
How it was run: as §1

[21] = test system: NCI-H441
How it was run: as §1

[22] = test system: BEN
How it was run: as §1

[23] = test system: LCLC-97TM1
How it was run: as §1

`COc1cc(N2CCC(C(N)=O)CC2)ccc1Nc1nc(N)c(Cl)c(Nc2ccccc2S(=O)(=O)C(C)C)n1` [HG-5-88-01] + O=C(CCCCCCC(=O)Nc1ccccc1)NO [Vorinostat] (partner 1 µM) was tested, and the relative viability ([1]; first compound 0.04 µM) was 0.476, the relative viability ([1]; first compound 0.1265 µM) was 0.525 and the relative viability ([1]; first compound 0.4 µM) was 0.525. It also gave a relative viability ([1]; first compound 1.265 µM) of 0.57, a relative viability ([1]; first compound 4 µM) of 0.386 and a relative viability ([2]; first compound 0.04 µM) of 0.984. For the same compound, the relative viability ([2]; first compound 0.1265 µM) was 0.94, the relative viability ([2]; first compound 1.265 µM) was 0.883 and the relative viability ([2]; first compound 4 µM) was 1.11. The relative viability ([3]; first compound 0.04 µM) was 0.72, the relative viability ([3]; first compound 0.1265 µM) was 0.737 and the relative viability ([3]; first compound 0.4 µM) was 0.678. For the same compound, the relative viability ([3]; first compound 1.265 µM) was 0.783, the relative viability ([3]; first compound 4 µM) was 0.595 and the relative viability ([4]; first compound 0.04 µM) was 1.29. It also gave a relative viability ([4]; first compound 0.1265 µM) of 1.18, a relative viability ([4]; first compound 0.4 µM) of 1.19 and a relative viability ([4]; first compound 4 µM) of 1.1. The relative viability ([5]; first compound 0.04 µM) was 0.747, the relative viability ([5]; first compound 0.1265 µM) was 0.601 and the relative viability ([5]; first compound 0.4 µM) was 0.803. It also gave a relative viability ([5]; first compound 1.265 µM) of 0.79, a relative viability ([5]; first compound 4 µM) of 0.781 and a relative viability ([6]; first compound 0.04 µM) of 0.74. For the same compound, the relative viability ([6]; first compound 0.1265 µM) was 0.692, the relative viability ([6]; first compound 0.4 µM) was 0.592 and the relative viability ([6]; first compound 1.265 µM) was 0.928. The relative viability ([6]; first compound 4 µM) was 0.76, the relative viability ([7]; first compound 0.04 µM) was 0.892 and the relative viability ([7]; first compound 0.1265 µM) was 0.859. It also gave a relative viability ([7]; first compound 0.4 µM) of 0.884, a relative viability ([7]; first compound 1.265 µM) of 0.912 and a relative viability ([7]; first compound 4 µM) of 0.726. It also gave a relative viability ([8]; first compound 0.04 µM) of 0.747, a relative viability ([8]; first compound 0.1265 µM) of 0.89 and a relative viability ([8]; first compound 0.4 µM) of 0.623. The relative viability ([8]; first compound 1.265 µM) was 0.811, the relative viability ([8]; first compound 4 µM) was 0.49 and the relative viability ([9]; first compound 0.04 µM) was 0.409. The relative viability ([9]; first compound 0.1265 µM) was 0.402, the relative viability ([9]; first compound 0.4 µM) was 0.386 and the relative viability ([9]; first compound 1.265 µM) was 0.424. The relative viability ([9]; first compound 4 µM) was 0.29, the relative viability ([10]; first compound 0.04 µM) was 0.509 and the relative viability ([10]; first compound 0.1265 µM) was 0.57. For the same compound, the relative viability ([10]; first compound 0.4 µM) was 0.572, the relative viability ([10]; first compound 1.265 µM) was 0.552 and the relative viability ([10]; first compound 4 µM) was 0.528. It also gave a relative viability ([11]; first compound 0.04 µM) of 0.764, a relative viability ([11]; first compound 0.1265 µM) of 0.777 and a relative viability ([11]; first compound 0.4 µM) of 0.361. It also gave a relative viability ([11]; first compound 1.265 µM) of 0.425, a relative viability ([11]; first compound 4 µM) of 0.436 and a relative viability ([12]; first compound 0.04 µM) of 1.07. For the same compound, the relative viability ([12]; first compound 0.1265 µM) was 1.48, the relative viability ([12]; first compound 0.4 µM) was 1.04 and the relative viability ([12]; first compound 1.265 µM) was 1.04. The relative viability ([12]; first compound 4 µM) was 0.715, the relative viability ([13]; first compound 0.04 µM) was 0.804 and the relative viability ([13]; first compound 0.1265 µM) was 0.75. For the same compound, the relative viability ([13]; first compound 0.4 µM) was 0.745, the relative viability ([13]; first compound 1.265 µM) was 0.674 and the relative viability ([13]; first compound 4 µM) was 0.579. The relative viability ([14]; first compound 0.04 µM) was 0.577, the relative viability ([14]; first compound 0.1265 µM) was 0.654 and the relative viability ([14]; first compound 0.4 µM) was 0.541. It also gave a relative viability ([14]; first compound 1.265 µM) of 0.526, a relative viability ([14]; first compound 4 µM) of 0.46 and a relative viability ([15]; first compound 0.04 µM) of 0.793. The relative viability ([15]; first compound 0.1265 µM) was 0.791, the relative viability ([15]; first compound 0.4 µM) was 0.771 and the relative viability ([15]; first compound 1.265 µM) was 0.761. The relative viability ([15]; first compound 4 µM) was 0.856, the relative viability ([16]; first compound 0.04 µM) was 0.822 and the relative viability ([16]; first compound 0.1265 µM) was 0.916. It also gave a relative viability ([16]; first compound 0.4 µM) of 0.761, a relative viability ([16]; first compound 1.265 µM) of 0.833 and a relative viability ([16]; first compound 4 µM) of 0.786. For the same compound, the relative viability ([17]; first compound 0.04 µM) was 0.623, the relative viability ([17]; first compound 0.1265 µM) was 0.627 and the relative viability ([17]; first compound 0.4 µM) was 0.645. It also gave a relative viability ([17]; first compound 1.265 µM) of 0.55, a relative viability ([17]; first compound 4 µM) of 0.568 and a relative viability ([18]; first compound 0.04 µM) of 0.77. For the same compound, the relative viability ([18]; first compound 0.1265 µM) was 0.907, the relative viability ([18]; first compound 0.4 µM) was 0.729 and the relative viability ([18]; first compound 4 µM) was 0.741. The relative viability ([19]; first compound 0.04 µM) was 0.879, the relative viability ([19]; first compound 0.1265 µM) was 0.756 and the relative viability ([19]; first compound 0.4 µM) was 0.58. The relative viability ([19]; first compound 1.265 µM) was 0.724, the relative viability ([19]; first compound 4 µM) was 0.303 and the relative viability ([20]; first compound 0.04 µM) was 0.604. It also gave a relative viability ([20]; first compound 0.1265 µM) of 0.597, a relative viability ([20]; first compound 0.4 µM) of 0.641 and a relative viability ([20]; first compound 1.265 µM) of 0.571. The relative viability ([20]; first compound 4 µM) was 0.532, the relative viability ([21]; first compound 0.04 µM) was 0.779 and the relative viability ([21]; first compound 0.1265 µM) was 0.736. For the same compound, the relative viability ([21]; first compound 0.4 µM) was 0.678, the relative viability ([21]; first compound 1.265 µM) was 0.865 and the relative viability ([21]; first compound 4 µM) was 0.725. For the same compound, the relative viability ([22]; first compound 0.04 µM) was 0.555, the relative viability ([22]; first compound 0.1265 µM) was 0.624 and the relative viability ([22]; first compound 0.4 µM) was 0.591. It also gave a relative viability ([22]; first compound 1.265 µM) of 0.552, a relative viability ([22]; first compound 4 µM) of 0.532 and a relative viability ([23]; first compound 0.04 µM) of 0.75. The relative viability ([23]; first compound 0.1265 µM) was 0.757, the relative viability ([23]; first compound 0.4 µM) was 0.62 and the relative viability ([23]; first compound 1.265 µM) was 0.645. The relative viability ([23]; first compound 4 µM) was 0.126.

Reference: the supplement of paper PMC10307832
